Results published in ChEMBL document CHEMBL1201862, “PubChem BioAssay data set” (2004).
Activity calls are given as the source filed them.

Test system: Streptococcus sp. 'group A'
Experiment: Streptococcus pyogenes SK(-)GAS viability under kanamycin – luminescence, BacTiterGlo, confirmation, counter-screen for streptokinase expression inhibitor project, dose response (AID 1900)
Type: functional, organism-based
Conditions: not given
In the case of O=C(Nc1ccc(Cl)c(Cl)c1)Nc1ccon1, the EC50 was 44.4 µM (active).
For O=C(Nc1ccc(Br)c(C(F)(F)F)c1)c1ccc(C(F)(F)F)cc1, the EC50 was 1.74 µM (active).

Biological target: T1, Streptokinase A (Streptococcus pyogenes serotype M1, UniProt P10520)
T1 sequence (P10520 whole entry): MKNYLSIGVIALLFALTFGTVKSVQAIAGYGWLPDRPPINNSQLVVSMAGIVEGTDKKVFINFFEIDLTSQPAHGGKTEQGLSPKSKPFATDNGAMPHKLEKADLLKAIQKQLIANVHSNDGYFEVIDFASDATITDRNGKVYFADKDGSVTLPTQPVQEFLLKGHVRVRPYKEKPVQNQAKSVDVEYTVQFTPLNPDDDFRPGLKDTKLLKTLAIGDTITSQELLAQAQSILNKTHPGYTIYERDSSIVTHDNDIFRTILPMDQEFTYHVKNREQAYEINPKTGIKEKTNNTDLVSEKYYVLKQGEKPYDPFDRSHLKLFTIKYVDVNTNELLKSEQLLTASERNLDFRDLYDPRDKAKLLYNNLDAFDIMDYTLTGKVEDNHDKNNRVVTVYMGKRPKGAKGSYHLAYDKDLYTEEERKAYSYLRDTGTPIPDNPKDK
Experiment: viability-normalized secreted streptokinase activity reduction – plasminogen activation absorbance, OD405, dose response (AID 1914);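 further: secreted streptokinase activity via plasminogen activation per viability signal from cell pellet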
Type: functional, Streptococcus pyogenes M1 GAS
Conditions: not given
In the case of O=C(Nc1ccc(Cl)c(Cl)c1)Nc1ccon1, the EC50 was > 150 µM (not active).
In the case of O=C(Nc1ccc(Br)c(C(F)(F)F)c1)c1ccc(C(F)(F)F)cc1, the EC50 was > 150 µM (not active).

Test system: not listed separately
Experiment: Trypanosoma cruzi growth suppression in host cells – NIH3T3 host cells, beta-gal luminescence, confirmation (AID 2044);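 further: intracellular parasites grown in NIH/3T3 mouse fibroblasts as host cells; luminescent beta-galactosidase reporter signal from transgenic T. cruzi replicating inside host cells; inhibitors lower the luminescence signal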
Type: functional, cell-based
Conditions: not given
For O=C(CN=C(S)N(Cc1ccccc1)Cc1ccccc1F)NCCc1ccc(Cl)cc1, the EC50 was 1.92 µM (active).

Test system: not listed separately
Experiment: NIH3T3 cell viability loss – ATP luminescence, mouse fibroblasts, counter-screen, dose response (AID 2010);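 further: cells exposed to compound for about 90 hours before reading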
Type: functional, cell-based
Conditions: not given
For O=C(CN=C(S)N(Cc1ccccc1)Cc1ccccc1F)NCCc1ccc(Cl)cc1, the EC50 was > 60 µM (not active).

Test system: Streptococcus
Experiment: GAS UMAA2166 growth inhibition – luminescence, BacTiterGlo, counter-screen for streptokinase expression inhibitor project, dose response (AID 1915);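 further: potency for reduction of bacterial viability or growth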
Type: functional, organism-based
Conditions: not given
In the case of O=C(Nc1ccc(Cl)c(Cl)c1)Nc1ccon1, the EC50 was 38.7 µM (active).
For O=C(Nc1ccc(Br)c(C(F)(F)F)c1)c1ccc(C(F)(F)F)cc1, the EC50 was 3.98 µM (active).

Test system: not listed separately
Experiment: Luminescence Cell-Based Dose Retest to Confirm Inhibitors of Cancer Stem Cells. [Related pubchem assays (depositor defined):AID2717, AID2721]
Type: functional
Conditions: Homo sapiens
For C/C(=N\NC(N)=S)c1cc(-c2ccccc2)c(-c2ccccc2)s1, the AC50 was 3.27 µM (active).
In the case of O=C(CN=C(S)N(Cc1ccccc1)Cc1ccccc1F)NCCc1ccc(Cl)cc1, the AC50 was 5.59 µM (active).
In the case of CCOC(=O)c1cccc(C2=CC(=O)C[C@H](c3ccc(Cl)cc3)C2)c1, the AC50 was 0.885 µM (active).
With CCC(C)c1ccc(NC(=O)C2CC3CCC2C3)cc1 (stereo not drawn) the AC50 was 4.53 µM (active).
In the case of O=C(Nc1ccc(Br)c(C(F)(F)F)c1)c1ccc(C(F)(F)F)cc1, the AC50 was 2.06 µM (active).
With CC(C(=O)O)N1C(=O)CSc2ncccc21 (stereo not drawn) the AC50 was > 195 µM (inactive).
In the case of CC(C)(C)[C@@H]1CCC(=O)N(CC[C@H](Sc2ccc(Br)cc2)c2ccccc2)CC1, the AC50 was 3.18 µM (active).
With COc1ccc(-c2nn(-c3ccccc3)cc2C(=O)N(C)CC(=O)Nc2cccc(F)c2)cc1 the AC50 was 12.9 µM (active).

Biological target: Cytochrome P450 2C19 (Homo sapiens, UniProt P33261)
Sequence (P33261 whole entry): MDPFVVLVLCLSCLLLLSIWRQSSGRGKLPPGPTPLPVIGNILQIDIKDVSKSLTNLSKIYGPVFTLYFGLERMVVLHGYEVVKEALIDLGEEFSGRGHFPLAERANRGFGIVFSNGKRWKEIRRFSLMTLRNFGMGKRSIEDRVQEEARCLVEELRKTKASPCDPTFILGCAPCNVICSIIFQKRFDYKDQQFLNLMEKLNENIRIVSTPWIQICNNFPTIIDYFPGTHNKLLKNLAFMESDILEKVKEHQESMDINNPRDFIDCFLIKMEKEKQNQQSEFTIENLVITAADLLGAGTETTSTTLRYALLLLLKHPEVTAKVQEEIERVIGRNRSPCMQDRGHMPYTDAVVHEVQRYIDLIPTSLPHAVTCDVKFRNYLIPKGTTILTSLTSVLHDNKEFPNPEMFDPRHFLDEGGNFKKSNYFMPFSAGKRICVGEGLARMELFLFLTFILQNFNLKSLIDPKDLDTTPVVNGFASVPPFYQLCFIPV
Experiment: Cytochrome panel assay with activity outcomes. Panel member name: p450-cyp2c19 Compounds with AC50 equal or less than 10 uM are considered active
Type: functional
Conditions: not given
With C[C@@]12CC[C@H]3[C@H](CC=C4C[C@@H](O)CC[C@@]43C)[C@@H]1CC[C@@H]2N(CCO)CCO the AC50 was “inconclusive”.

Same assay, conditions: read-out: AC50
In the case of C#CCCCC(=S)Nc1ccccc1, the AC50 was 39.8 µM (inconclusive).
With NC(=S)Nc1ccc(Oc2ccc(NC(N)=S)cc2)cc1 the AC50 was 25.1 µM (inconclusive).

Biological target: Heat shock protein HSP 90-alpha (Homo sapiens, UniProt P07900)
Type: functional, organism-based
Conditions: not given
With CSc1nc2ccc(S(=O)(=O)NC3CCCCC3)cc2s1 the AC50 was 8.57 µM (active).
With O=[N+]([O-])c1ccc(O)c(C2CCCCC2)c1 the AC50 was 8.09 µM (active).

Test system: INS1
Experiment: INS-1E survival protection against cytokine death – cell-based, luminescence, retest, dose response (AID 449756);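 further: cell death triggered by IL-1 beta plus TNF-alpha plus IFN-gamma mixture; protective hits raise ATP signal compared with cytokine alone wells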
Type: functional
Conditions: Rattus norvegicus
With O=C(Nc1ccc(Br)c(C(F)(F)F)c1)c1ccc(C(F)(F)F)cc1 the AC50 was 8.01 µM (active).

Biological target: T2, Corticotropin-releasing factor receptor 2/Corticotropin-releasing factor-binding protein (Homo sapiens, UniProt P24387+Q13324)
T2 sequence (Q13324 whole entry): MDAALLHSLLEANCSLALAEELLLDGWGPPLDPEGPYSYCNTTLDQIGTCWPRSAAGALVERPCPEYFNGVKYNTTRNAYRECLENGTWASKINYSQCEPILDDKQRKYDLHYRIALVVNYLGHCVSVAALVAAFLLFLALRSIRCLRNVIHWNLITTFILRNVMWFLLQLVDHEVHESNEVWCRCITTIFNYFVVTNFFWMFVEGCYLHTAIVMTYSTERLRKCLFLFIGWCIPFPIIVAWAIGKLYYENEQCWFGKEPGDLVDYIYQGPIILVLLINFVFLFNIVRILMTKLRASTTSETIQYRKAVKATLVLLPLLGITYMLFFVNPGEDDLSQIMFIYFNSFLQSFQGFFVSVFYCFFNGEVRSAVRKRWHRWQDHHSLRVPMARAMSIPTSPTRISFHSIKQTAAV
T2 sequence (P24387 whole entry): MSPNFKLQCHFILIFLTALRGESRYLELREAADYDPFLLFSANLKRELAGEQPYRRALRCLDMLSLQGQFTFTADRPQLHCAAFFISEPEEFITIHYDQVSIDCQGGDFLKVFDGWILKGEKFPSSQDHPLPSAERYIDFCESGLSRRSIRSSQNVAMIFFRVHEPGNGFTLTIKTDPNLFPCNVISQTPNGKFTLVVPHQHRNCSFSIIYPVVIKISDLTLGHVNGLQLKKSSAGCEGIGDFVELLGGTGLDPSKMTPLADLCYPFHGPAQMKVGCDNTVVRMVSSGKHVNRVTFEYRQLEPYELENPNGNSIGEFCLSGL
Experiment: activators of CRF receptor 2 with binding protein – uHTS hits, confirmation (AID 602473)
Type: functional
Conditions: read-out: EC50_Mean
With c1ccc(CCn2nnnc2CN2CCCc3ccccc32)cc1 the EC50 was > 53 µM (inactive).

Biological target: T3, Protein skinhead-1 (Caenorhabditis elegans, UniProt P34707)
T3 sequence (P34707 whole entry): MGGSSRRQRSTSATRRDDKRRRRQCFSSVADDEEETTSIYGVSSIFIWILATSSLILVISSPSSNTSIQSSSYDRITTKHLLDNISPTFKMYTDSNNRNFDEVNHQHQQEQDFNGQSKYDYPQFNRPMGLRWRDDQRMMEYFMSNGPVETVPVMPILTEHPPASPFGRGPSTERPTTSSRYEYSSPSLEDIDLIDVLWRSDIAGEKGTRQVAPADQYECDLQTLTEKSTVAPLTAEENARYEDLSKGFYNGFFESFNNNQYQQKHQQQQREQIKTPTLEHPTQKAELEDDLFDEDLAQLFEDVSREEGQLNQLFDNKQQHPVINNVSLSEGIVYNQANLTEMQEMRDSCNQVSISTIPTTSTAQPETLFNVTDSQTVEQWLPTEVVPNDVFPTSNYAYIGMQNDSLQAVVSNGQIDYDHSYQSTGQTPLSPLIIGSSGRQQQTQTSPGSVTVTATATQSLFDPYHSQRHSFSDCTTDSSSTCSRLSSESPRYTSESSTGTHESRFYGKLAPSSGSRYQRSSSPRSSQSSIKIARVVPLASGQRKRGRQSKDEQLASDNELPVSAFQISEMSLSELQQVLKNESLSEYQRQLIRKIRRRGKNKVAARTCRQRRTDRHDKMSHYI
Type: functional
Conditions: not given
In the case of CC(C)C1COC(c2cccc3ccccc23)=N1 (stereo not drawn), the IC50 was 25 µM (active).
In the case of O=C(Nc1nc(-c2ccc(Cl)s2)cs1)c1ccccc1, the IC50 was 68.3 µM (inactive).
In the case of c1csc(-c2nc(-c3ccncc3)no2)c1, the IC50 was 22.2 µM (active).
In the case of c1ccc2oc(SCc3nc4ccccc4s3)nc2c1, the IC50 was 37.5 µM (active).
With O=C(Nc1ccc(Cl)c(Cl)c1)Nc1ccon1 the IC50 was > 100 µM (inactive).
For CC1CCN(S(=O)(=O)c2ccc(C(=O)N3CCOCC3)cc2)CC1, the IC50 was > 100 µM (inactive).
With COc1ccc(C(C)C)cc1S(=O)(=O)n1cnc(C)c1 the IC50 was > 100 µM (inactive).
For Brc1ccc(-c2nnc(-c3ccccc3Br)o2)cc1, the IC50 was > 100 µM (inactive).
For Cc1ccc(N2CCN(S(=O)(=O)c3ccc4oc(=O)ccc4c3)CC2)c(C)c1, the IC50 was > 100 µM (inactive).
With CSc1cccc(NC(=O)C2C3C=CC4(O3)C2C(=O)N(CCN2CCOCC2)C4C(=O)NC2CCCCC2)c1 (stereo not drawn) the IC50 was > 100 µM (inactive).
With CCCC1(C(=O)OCC)NC(c2ccc(N(C)C)cc2)C2C(=O)N(c3ccccc3)C(=O)C21 (stereo not drawn) the IC50 was > 100 µM (inactive).
With O=C(NC(c1ccc(-c2ccccc2)cc1)c1cnccn1)C1CCN(CCOc2ccc(Cl)cc2Cl)CC1 (stereo not drawn) the IC50 was > 100 µM (inactive).
For CN(C(=O)C1Cc2c(-c3ccccc3Oc3ccccc3)ccnc2O1)c1ccccc1 (stereo not drawn), the IC50 was > 100 µM (inactive).
In the case of CCN(C(=O)COC(=O)c1cc(-c2cccc3ccccc23)nc2ccccc12)C1CCS(=O)(=O)C1 (stereo not drawn), the IC50 was > 100 µM (inactive).

Biological target: Cytochrome P450 2D6 (Homo sapiens, UniProt P10635);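 further: CYP2D6 member of a cytochrome P450 panel assay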
Sequence (P10635 whole entry): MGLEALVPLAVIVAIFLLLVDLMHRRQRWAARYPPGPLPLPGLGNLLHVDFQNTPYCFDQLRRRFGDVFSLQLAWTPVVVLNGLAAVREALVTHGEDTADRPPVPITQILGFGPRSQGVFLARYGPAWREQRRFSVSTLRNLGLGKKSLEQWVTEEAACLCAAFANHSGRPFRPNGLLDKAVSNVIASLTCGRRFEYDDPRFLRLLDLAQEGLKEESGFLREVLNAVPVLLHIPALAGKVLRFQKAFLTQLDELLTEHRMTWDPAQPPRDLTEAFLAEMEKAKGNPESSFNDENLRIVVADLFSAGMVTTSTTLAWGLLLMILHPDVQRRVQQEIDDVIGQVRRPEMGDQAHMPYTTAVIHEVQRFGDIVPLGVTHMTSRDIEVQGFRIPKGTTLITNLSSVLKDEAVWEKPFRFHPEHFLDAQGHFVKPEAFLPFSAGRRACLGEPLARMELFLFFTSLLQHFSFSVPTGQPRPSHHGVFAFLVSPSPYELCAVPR
Conditions: not given
With O=C1NC(c2cccc([N+](=O)[O-])c2)=CCN1c1ccccc1O [ICILLIN] the AC50 was 20 µM (inconclusive).
With CCOc1ccc2nc(O)c(CN(CCc3ccccc3)C(=O)N3CCCC3)cc2c1 the AC50 was 22.4 µM (inconclusive).
With CNc1nc(-c2ccoc2)nc2ccccc12 the AC50 was 39.8 µM (inconclusive).
In the case of C[C@@]12CC[C@H]3[C@H](CC=C4C[C@@H](O)CC[C@@]43C)[C@@H]1CC[C@@H]2N(CCO)CCO, the AC50 was 3.98 µM (inconclusive).
With C#CCCCC(=S)Nc1ccccc1 the AC50 was 39.8 µM (inconclusive).
In the case of CCNc1ncc2nc(-c3ccccc3)c(=O)n(C3CC3)c2n1, the AC50 was 1.26 µM (inconclusive).
With COc1ccc(CC(=O)Nc2cccc(-c3nnc(-c4ccco4)o3)c2)cc1 the AC50 was 20 µM (inconclusive).
In the case of O=C(CSCC(=O)OCn1nnc2ccccc2c1=O)Nc1ccc(Cl)cc1, the AC50 was 25.1 µM (inconclusive).
For NC(=S)Nc1ccc(Oc2ccc(NC(N)=S)cc2)cc1, the AC50 was 14.1 µM (inconclusive).
With CCOC(=O)c1ccccc1N/C=C1\CCCCC1=O the AC50 was 35.5 µM (inconclusive).

Biological target: T4, Cytochrome P450 1A2 (Homo sapiens, UniProt P05177);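 further: PubChem cytochrome P450 panel assay, CYP1A2 panel member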
T4 sequence (P05177 whole entry): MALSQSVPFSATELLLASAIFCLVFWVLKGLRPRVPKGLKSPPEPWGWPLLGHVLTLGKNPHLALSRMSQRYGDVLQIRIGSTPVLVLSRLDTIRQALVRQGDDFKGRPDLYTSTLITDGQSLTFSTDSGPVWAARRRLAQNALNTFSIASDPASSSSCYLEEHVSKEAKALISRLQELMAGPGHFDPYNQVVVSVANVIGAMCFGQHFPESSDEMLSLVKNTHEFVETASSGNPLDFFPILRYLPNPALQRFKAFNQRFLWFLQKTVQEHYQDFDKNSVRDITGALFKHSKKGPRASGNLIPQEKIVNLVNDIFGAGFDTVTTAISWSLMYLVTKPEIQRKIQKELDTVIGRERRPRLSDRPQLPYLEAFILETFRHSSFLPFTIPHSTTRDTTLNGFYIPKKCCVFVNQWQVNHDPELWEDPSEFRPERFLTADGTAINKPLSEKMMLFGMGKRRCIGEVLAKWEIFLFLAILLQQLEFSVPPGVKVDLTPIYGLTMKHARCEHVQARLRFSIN
Conditions: not given
With O=C1NC(c2cccc([N+](=O)[O-])c2)=CCN1c1ccccc1O [ICILLIN] the AC50 was 31.6 µM (inconclusive).
For COc1ccc(CC(=O)Nc2cccc(-c3nnc(-c4ccco4)o3)c2)cc1, the AC50 was 15.8 µM (inconclusive).
In the case of O=C(CSCC(=O)OCn1nnc2ccccc2c1=O)Nc1ccc(Cl)cc1, the AC50 was 25.1 µM (inconclusive).

Biological target: Cytochrome P450 3A4 (Homo sapiens, UniProt P08684);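 further: CYP3A4 tested as one member of a cytochrome P450 panel screen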
Sequence (P08684 whole entry): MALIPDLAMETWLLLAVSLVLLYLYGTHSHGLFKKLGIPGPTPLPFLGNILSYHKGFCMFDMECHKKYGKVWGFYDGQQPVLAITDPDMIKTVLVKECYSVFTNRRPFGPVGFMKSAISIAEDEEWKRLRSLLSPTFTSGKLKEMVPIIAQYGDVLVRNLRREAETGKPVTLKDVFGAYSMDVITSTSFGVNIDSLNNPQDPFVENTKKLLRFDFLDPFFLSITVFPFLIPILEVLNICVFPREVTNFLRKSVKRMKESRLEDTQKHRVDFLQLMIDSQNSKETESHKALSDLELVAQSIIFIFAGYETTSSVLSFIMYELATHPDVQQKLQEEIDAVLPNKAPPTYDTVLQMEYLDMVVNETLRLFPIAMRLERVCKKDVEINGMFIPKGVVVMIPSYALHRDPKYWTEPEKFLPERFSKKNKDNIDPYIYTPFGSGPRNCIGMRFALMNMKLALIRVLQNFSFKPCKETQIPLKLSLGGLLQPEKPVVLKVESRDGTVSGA
Conditions: not given
In the case of C#CCCCC(=S)Nc1ccccc1, the AC50 was 25.1 µM (inconclusive).

Biological target: Cytochrome P450 2C9 (Homo sapiens, UniProt P11712)
Sequence (P11712 whole entry): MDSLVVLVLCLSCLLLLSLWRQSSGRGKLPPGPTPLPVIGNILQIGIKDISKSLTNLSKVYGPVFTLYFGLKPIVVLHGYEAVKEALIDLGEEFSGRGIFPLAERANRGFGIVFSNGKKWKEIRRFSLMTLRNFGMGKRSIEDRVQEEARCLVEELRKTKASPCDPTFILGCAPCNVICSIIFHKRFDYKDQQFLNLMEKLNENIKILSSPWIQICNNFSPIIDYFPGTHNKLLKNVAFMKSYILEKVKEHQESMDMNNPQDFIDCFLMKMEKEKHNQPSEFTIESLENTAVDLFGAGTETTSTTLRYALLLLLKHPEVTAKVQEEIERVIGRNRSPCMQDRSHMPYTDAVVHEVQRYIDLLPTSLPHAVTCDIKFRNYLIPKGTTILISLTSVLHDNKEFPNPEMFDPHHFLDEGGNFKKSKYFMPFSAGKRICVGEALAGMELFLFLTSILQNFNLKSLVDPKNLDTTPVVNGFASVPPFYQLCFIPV
Conditions: not given
For C#CCCCC(=S)Nc1ccccc1, the AC50 was 39.8 µM (inconclusive).
In the case of CCOC(=O)c1ccccc1N/C=C1\CCCCC1=O, the AC50 was 39.8 µM (inconclusive).
